# Reference: patent US5059590A, “Imidazole derivatives, process for production thereof, and use thereof” (Yamasa Shoyu Kabushiki Kaisha, priority 1988, dated 1991)
# Key:
# Assay type in all cases: cell-based
# [1] = tested on: L1210 mouse leukemia cells; test: In vitro anti-proliferative activity against mouse tumor cell lines, Test Method 1 (L1210); settings: L1210, 48 hours, 37° C.
# Experimental: (§1) In vitro anti-proliferative activity against mouse tumor cell lines
# 1. L1210 mouse leukemia cells are cultivated in RPMI1640 medium supplemented with 10% fetal bovine serum, and the resultant cells are diluted with the same medium in the logarithmic growth phase to a concentration of 1.6×10^5 cells/ml.
# 2. To test tubes each containing 0.9 ml of the above obtained diluted cell suspension is added 0.1 ml each of test solutions serially diluted with a culture medium or phosphate-buffered saline (PBS), and the mixture is incubated in a 2% CO2 -incubator at 37° C. for 48 hours.
# 3. After incubation, the number of the cells in each tube is counted with a Coulter counter (Model ZB, Coulter Electronics), and the growth inhibition percent (%) of the cells at each concentration of a test compound is calculated from the following equation: [formula] Tx: Number of the cells in a test tube containing a test compound as counted upon completion of the incubation (cells/ml)
# Cx: Number of the cells in a test tube containing no test compound as counted upon completion of the incubation (cells/ml)
# Co: Number of the cells in a test tube containing no test compound as counted at the initiation of the incubation (cells/ml)
# 4. The concentration of the test compound, which causes cell growth inhibition by 50%, is determined by the graph showing the relationship between the growth inhibition percent and the concentration of the test compound, and is defined as 50% inhibitory concentration (IC50).
# [2] = tested on: Mouse lymphoma cell line P388; test: In vitro anti-proliferative activity against mouse tumor cell lines, Test Method 2 (P388); settings: P388, 48 hours, 37° C.
# Experimental: as §1
# (§2) 1. Mouse lymphoma cell line P388 or mouse sarcoma 180 is suspended in RPMI1640 medium supplemented with 10% fetal bovine serum and 2 μM 2-hydroxyethyl disulfide to a concentration of 10^5 cells/ml. Test compounds are serially diluted with the same medium.
# (§3) 2. 0.5 ml of the cell suspension thus obtained is admixed with 0.5 ml of the medium or the test compound solution, and the mixture is incubated in a 5% CO2 -incubator at 37° C. for 48 hours. The incubation is carried out in glass culture tubes.
# (§4) 3. At the end of incubation, the number of the cells in each tube is counted with a Coulter counter (Model ZB, Coulter Electronics), and the growth inhibition percent (%) is calculated from the same equation as in Test Method 1.
# (§5) 4. The IC50 value is obtained as in Test Method I.
# mouse sarcoma 180 = test: In vitro anti-proliferative activity against mouse tumor cell lines, Test Method 2 (sarcoma 180); settings: Sarcoma 180, 48 hours, 37° C.
# Experimental: as §1, §2, §3, §4, §5
Compound,IC50 [1] [µg/mL],IC50 [2] [µg/mL],IC50 (mouse sarcoma 180) [µg/mL]
"CCCC#Cc1c(C(N)=O)ncn1[C@@H]1O[C@H](CO)[C@@H](O)[C@H]1O [R = [drawing 28]; A = CONH2; R^1 = C3, 5-(1-pentyn-1-yl)-1-β-D-ribofuranosylimidazole-4-carboxamide]",2.92,,
"NC(=O)c1ncn([C@@H]2O[C@H](CO)[C@@H](O)[C@H]2O)c1C#CCO [R = [drawing 28]; A = CONH2; R^1 = CH2 OH, 5-(3-Hydroxy-1-propyn-1-yl)-1-β-D-ribofuranosylimidazole-4-carboxamide]",0.7,,
"N#Cc1ncn([C@@H]2O[C@H](CO)[C@@H](O)[C@H]2O)c1C#CCCO [R = [drawing 28]; A = CN; R^1 = CH2 CH2 OH, 5-(4-hydroxy-1-butyn-1yl)-1-β-D-ribofuranosylimidazole-4-carbonitrile]",3.3,,
NC(=O)c1ncn([C@@H]2O[C@H](CO)[C@@H](O)[C@H]2O)c1C#CCCO [5-(4-hydroxy-1butyn-1-yl)-1β-D-ribofuranosylimidazole-4-carboxamide],1.28,,

# The next lines start with the values.
IC50 [1] [µg/mL],IC50 [2] [µg/mL],IC50 (mouse sarcoma 180) [µg/mL],Compound
4,4.37,1.39,C#Cc1[nH]cnc1C(N)=O [5-ethynylimidazole-4-carboxamide]
2.9,14.1,9.92,C#Cc1[nH]cnc1C#N [5-ethynylimidazole-4-carbonitrile]
4.1,,,"N#Cc1ncn([C@@H]2O[C@H](CO)[C@@H](O)[C@H]2O)c1C#CCO [R = [drawing 28]; A = CN; R^1 = CH2 OH, 5-(3-Hydroxy-1-propyn-1-yl)-1-β-D-ribofuranosylimidazole-4-carbonitrile]"
1.9,0.93,0.8,C#Cc1c(C#N)ncn1[C@@H]1O[C@H](CO)[C@@H](O)[C@H]1O [5-ethynyl-1-β-D-ribofuranosylimidazole-4-carbonitrile]
